In publication PMC6026185 (Scientific Reports, 2018):

Assays:
[1] = test system: hNKCC2 isoform A; conditions: Xenopus oocytes; ref Payne et al.[57]; Isenring et al.[58]; Plata et al.[59]; Carota et al.[56]; Lykke et al.[60]; Lykke et al.[29]; read-out: IC50 (µM) NKCC2 (hA); cited from earlier work
[2] = test system: hNKCC1; conditions: HEK-293 cells; activated state; NKCC1 isoforms not differentiated; ref Payne et al.[57]; Isenring et al.[58]; Plata et al.[59]; Carota et al.[56]; Lykke et al.[60]; Lykke et al.[29]; cited from earlier work
[3] = test system: NKCC2; design: method as in ref Palfrey et al.[48]; Schlatter et al.[23]; Frelin et al.[49]; O’Grady et al.[50]; Glanville et al.[51]; Hannaert et al.[52]; conditions: Rabbit kidney TAL; rat kidney TAL; NKCC2 isoforms not differentiated; ref Palfrey et al.[48]; Schlatter et al.[23]; Frelin et al.[49]; O’Grady et al.[50]; Glanville et al.[51]; Hannaert et al.[52]; cited from earlier work
[4] = design: method as in DrugBank database; conditions: ref DrugBank database; cited from earlier work
[5] = target: T1, hNKCC1B (Homo sapiens, UniProt P55011); test: 86Rb+ uptake in hNKCC1B-expressing Xenopus laevis oocytes; type: cell-based; conditions: 5 min, corrected for uninjected oocytes, median and range of 3–7 experiments
T1 construct: expressed in transfected cells; host or cells: Xenopus laevis oocytes injected with cRNA (pXOOM vector)
T1 sequence (P55011 1-1196 isoform P55011-3): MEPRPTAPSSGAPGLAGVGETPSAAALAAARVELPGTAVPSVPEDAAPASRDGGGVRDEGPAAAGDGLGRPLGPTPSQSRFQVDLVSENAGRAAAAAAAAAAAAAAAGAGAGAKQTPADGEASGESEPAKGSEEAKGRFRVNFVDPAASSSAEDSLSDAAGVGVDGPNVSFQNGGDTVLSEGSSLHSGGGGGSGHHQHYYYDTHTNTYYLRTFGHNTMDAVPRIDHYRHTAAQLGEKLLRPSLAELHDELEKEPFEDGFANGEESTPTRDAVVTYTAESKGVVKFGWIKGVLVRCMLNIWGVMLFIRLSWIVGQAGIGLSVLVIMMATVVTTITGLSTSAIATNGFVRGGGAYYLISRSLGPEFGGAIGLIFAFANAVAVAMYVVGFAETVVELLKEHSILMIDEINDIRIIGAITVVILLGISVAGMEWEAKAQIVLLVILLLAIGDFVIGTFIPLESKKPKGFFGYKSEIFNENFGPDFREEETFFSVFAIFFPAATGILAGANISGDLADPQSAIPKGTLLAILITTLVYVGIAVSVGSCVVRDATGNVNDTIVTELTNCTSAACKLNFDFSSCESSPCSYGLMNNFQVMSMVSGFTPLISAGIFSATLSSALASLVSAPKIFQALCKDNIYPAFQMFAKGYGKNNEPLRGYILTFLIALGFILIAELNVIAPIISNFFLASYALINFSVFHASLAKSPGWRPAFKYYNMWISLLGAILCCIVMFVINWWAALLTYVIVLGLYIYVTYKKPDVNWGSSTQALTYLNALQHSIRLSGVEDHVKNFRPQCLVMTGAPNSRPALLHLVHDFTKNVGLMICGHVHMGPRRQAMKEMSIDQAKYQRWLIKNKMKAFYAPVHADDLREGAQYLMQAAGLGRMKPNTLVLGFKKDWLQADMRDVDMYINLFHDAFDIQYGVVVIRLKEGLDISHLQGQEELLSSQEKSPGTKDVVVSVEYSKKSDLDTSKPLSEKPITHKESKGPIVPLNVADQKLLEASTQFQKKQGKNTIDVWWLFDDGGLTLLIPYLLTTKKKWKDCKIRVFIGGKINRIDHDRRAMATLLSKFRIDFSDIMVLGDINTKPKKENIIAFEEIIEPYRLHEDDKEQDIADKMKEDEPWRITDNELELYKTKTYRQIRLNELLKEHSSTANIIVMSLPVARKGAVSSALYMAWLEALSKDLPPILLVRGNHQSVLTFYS
From the text: Human NKCC1A (NM_001046, obtained from Prof. Biff Forbush, Yale School of Medicine, CT) and NKCC1B (prepared by site-directed mutagenesis from hNKCC1A as described below) were subcloned into the oocytes expression vector pXOOM, linearized downstream from the poly-A segment, and in vitro transcribed using T7-mMessage Machine according to manufacturer’s instructions (Ambion, Austin, TX). cRNA was then extracted with MEGAclear (Ambion, Austin, TX) and micro-injected into defolliculated Xenopus laevis oocytes (25 ng RNA/oocyte). The oocytes were kept in Kulori medium (in mM: 90 NaCl, 1 KCl, 1 CaCl2, 1 MgCl2, 5 Hepes, pH 7.4, 182 mOsm) for 5–6 days at 19 °C prior to experiments.
To activate NKCC1A and NKCC1B prior to the ^86Rb^+ uptake measurements aimed at measuring NKCC-mediated fluxes, hNKCC1A- or hNKCC1B-expressing oocytes or uninjected control oocytes (4–13 oocytes per well) were pre-incubated for 30 min at room temperature in a K^+-free solution (containing in mM: 5 choline chloride, 95 NaCl, 1 MgCl2, 1 CaCl2, 10 Hepes, pH 7.4, 207 mOsm), which causes shrinkage of the oocyte and thus activation of NKCC1A[22]. […]
Significance of differences in transport activity of hNKCC1A or hNKCC1B expressing oocytes vs. uninjected oocytes were analyzed by the Kruskal-Wallis test followed by Dunn’s multiple comparisons test. […]

[6] = ref [9],[10]; cited from earlier work

For `CCCCNc1cc(C(=O)O)cc(S(N)(=O)=O)c1Oc1ccccc1` [Bumetanide], the IC50 [1] is given as 0.54 to 4 µM, the IC50 [2] is given as 0.16 to 0.28 µM and the IC50 [3] is given as 0.2 to 0.33 µM. The “Lipophilicity (logP)” value [4] was 2.7, the IC50 [5] was 0.842 µM and the plasma protein binding [6] was over 95%.
